Measurements reported in paper PMC7852560 (Neuropsychopharmacology, 2020).
“And” between values parts separate entries of the source, which are not always exact repeats. Equal entries are not always repeated.

Columns and labels:
Dopamine D2 = Dopamine D2 (Homo sapiens, UniProt P14416); assay: SafetyScreen44 panel: Dopamine D2; assay type: binding; conditions: 1 µM
Experimental: (§1) The screen assesses the selectivity of the compound on a diverse panel of targets that includes GPCRs, drug transporters, ion channels, nuclear receptors, kinases, and other non-kinase enzymes. The screen employs radioligand binding or enzyme assays for these 44 targets.
(§2) For receptor assays, binding was calculated as percent inhibition of the binding of a radioactively labeled ligand specific for each target. For enzyme assays, the inhibition effect was calculated as percent inhibition of control enzyme activity. Tests were performed in duplicate, and results are averages of those two tests. See https://www.eurofinsdiscoveryservices.com.

CB2 = biological target: T1, CB2 (Homo sapiens, UniProt P34972); assay: SafetyScreen44 panel: CB2; assay type: binding; conditions: 1 µM
T1 construct: Eurofins Cerep
T1 sequence (P34972 whole entry): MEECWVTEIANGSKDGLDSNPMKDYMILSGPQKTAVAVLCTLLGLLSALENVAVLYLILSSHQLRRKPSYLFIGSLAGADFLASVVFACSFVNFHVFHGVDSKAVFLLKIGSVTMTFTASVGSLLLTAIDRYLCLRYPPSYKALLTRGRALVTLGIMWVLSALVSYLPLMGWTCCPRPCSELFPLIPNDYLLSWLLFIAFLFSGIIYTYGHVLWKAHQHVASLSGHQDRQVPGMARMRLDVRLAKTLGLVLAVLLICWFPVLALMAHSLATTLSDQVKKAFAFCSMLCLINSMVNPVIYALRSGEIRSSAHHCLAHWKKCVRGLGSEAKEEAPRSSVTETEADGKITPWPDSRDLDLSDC
Experimental: as §1, §2

C57Bl/6J mice = assay type: in vivo; conditions: 10 mg/kg i.p., 30 min before test, compared to vehicle
Source text: (i.p.) before testing. The EPM was composed of 4 opaque-white arms (2 opposite arms closed, 2 opposite arms open), arranged in a plus shape, with an open center. The dimensions were as follows; maze elevation (38.7cm), open arm (L:30.5 cm, W:5 cm, H:0 cm), closed arm (L:30.5 cm, W:5 cm, H:15.2 cm) and center (5 cm x 5 cm). The experiment mouse was placed in the center of the maze and allowed to freely explore the maze for 8-min (50lux), while being tracked with an overhead camera. Open and closed arm times were recorded and collected by Biobserve Viewer3 software. The percentage of time spent in the open arms as compared to closed arms and center time was calculated and expressed as a percent of time spent in the open or closed arms of the maze.

CB1R = CB1R (Homo sapiens, UniProt P21554); assay: cell-based; assay type: cell-based
Chain of CB1R (P21554 whole entry): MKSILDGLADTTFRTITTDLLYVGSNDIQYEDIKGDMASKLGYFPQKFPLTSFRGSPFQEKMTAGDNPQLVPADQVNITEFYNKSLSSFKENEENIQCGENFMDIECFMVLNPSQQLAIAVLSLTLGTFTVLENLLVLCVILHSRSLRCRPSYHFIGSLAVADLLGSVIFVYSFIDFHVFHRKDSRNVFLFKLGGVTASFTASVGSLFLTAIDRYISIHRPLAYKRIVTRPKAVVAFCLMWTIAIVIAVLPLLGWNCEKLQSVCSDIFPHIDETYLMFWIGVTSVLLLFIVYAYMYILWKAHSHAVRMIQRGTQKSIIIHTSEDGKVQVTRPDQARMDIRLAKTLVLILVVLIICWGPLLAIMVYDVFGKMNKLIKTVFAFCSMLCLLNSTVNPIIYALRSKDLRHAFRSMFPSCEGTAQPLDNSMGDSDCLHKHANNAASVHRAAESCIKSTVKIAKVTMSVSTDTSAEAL
Experimental: The cAMP BRET experiments were performed as previously described. Briefly, hCB1R HEK293 cells were transfected with 5 µg/10 cm dish of the CAMYEL biosensor using polyethylenimine. After 24 h, the cells were plated into white 96-well plates (PerkinElmer) at a density of 60,000 cells/well.
Cyclic AMP accumulation was measured using a DiscoverX HitHunter® cAMP Assay for Small Molecules (DiscoverX, Fremont, CA). hCB1R CHO cells were seeded at a density of 40,000 cells/well in 96-well white plates and grown overnight at 37 °C, 5% CO2 in a humidified incubator. […] Vehicle concentration was 1% DMSO, 0.1% BSA. Following agonist incubation, 15 µl of cAMP antibody reagent and 60 µl of working cAMP detection solution (containing 19 parts cAMP lysis buffer, 5 parts Substrate Reagent 1, 1 part Substrate Reagent 2 and 25 parts of cAMP Solution D) were added to all wells. Assay plates were incubated in the dark for 1 hr at room temperature, followed by addition of 60 µl cAMP solution A to all wells and incubation for 3 hr at room temperature in the dark. Plates were read using a GloMax Discover plate-reader (Promega, Madison, WI).

DATKO mice = assay: Open-field test in DATKO mice; conditions: 10 mg/kg i.p., 30 min before test
in vivo = assay: in vivo; set-up: species or system male C57Bl/6 mice
Experimental: (§3) Microsomal stability assays were conducted by Cyprotex Ltd (Macclesfield, UK).
Blood samples (approximately 60 µL; n=3 mice per time-point) were taken at 0.08, 0.25, 0.5, 1, 2, 4, 6 and 8 hrs. Immediately after collection of blood, brain samples were collected from the set of three mice at each time point. Plasma samples were separated by centrifugation of whole blood, while brain samples were homogenized in ice-cold phosphate buffer saline (pH 7.4). Total homogenate volume was three times the brain weight. Plasma and homogenates were stored below -70±10 °C until analysis. The extraction procedure for plasma/brain samples and the spiked plasma/brain calibration standards were identical. To a 25 µL volume of study sample (dilution factor applied to some samples) or spiked plasma/brain calibration standard, 100 µL of internal standard prepared in acetonitrile (Glipizide, 500 ng/mL) was added, except for blank where 100 µL of acetonitrile was added. […] Pharmacokinetic parameters were calculated using the non-compartmental analysis tool of Phoenix WinNonlin® (Version 7.0). Areas under the concentration time curve (AUC) values were calculated by linear trapezoidal rule.

in vitro = in vitro ADME, human; conditions: pH 7.4
Experimental: as §3
The study of drug stability in the presence of liver microsomes is accepted as a valuable model for permitting rapid prediction of in vivo drug stability (see Kerns & Di, 2008). Microsomal stability studies were performed by Cyprotex Ltd (Macclesfield, UK). […] Microsomes (final protein concentration 0.5 mg/mL), 0.1 M phosphate buffer pH 7.4, and test compound (final concentration 3 μM; diluted from 10 mM stock solution to give a final DMSO concentration of 0.25%) were incubated at 37°C prior to the addition of NADPH (final concentration 1 mM) to initiate the reaction with a final incubation volume of 25 µL. A control incubation was included for each compound tested, where 0.1 M phosphate buffer pH 7.4 was added instead of NADPH. The control compounds testosterone and 7-hydroxycoumarin were included in each experiment and all incubations were performed singularly for each compound. […] Following protein precipitation, the sample supernatants were combined in cassettes of up to 4 compounds and analyzed using standard LC-MS/MS conditions. From a plot of the natural logarithm of the peak area ratio (i.e., the ratio of compound peak area: internal standard peak area) against time, the gradient of the line was determined. Subsequently, half-life and intrinsic clearance were calculated using the equations below: […]

[1] = male, C57Bl/6, mouse, ip, 10 mg/kg

Chain of Dopamine D2 (P14416 other isoform, or with tags, fused parts or gaps): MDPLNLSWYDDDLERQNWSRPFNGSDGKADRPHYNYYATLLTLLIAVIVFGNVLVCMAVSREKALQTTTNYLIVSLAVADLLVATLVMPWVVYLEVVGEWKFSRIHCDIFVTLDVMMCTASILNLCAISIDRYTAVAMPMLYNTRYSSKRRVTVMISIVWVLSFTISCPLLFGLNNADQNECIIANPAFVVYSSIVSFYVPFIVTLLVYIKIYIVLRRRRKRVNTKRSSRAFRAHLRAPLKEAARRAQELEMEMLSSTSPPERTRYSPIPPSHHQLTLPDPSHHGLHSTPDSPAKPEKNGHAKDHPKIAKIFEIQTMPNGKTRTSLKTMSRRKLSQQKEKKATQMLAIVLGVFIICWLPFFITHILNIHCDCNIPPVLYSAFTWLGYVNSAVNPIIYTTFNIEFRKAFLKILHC

For `CCc1c(-c2nnc(Nc3ccccc3)o2)[nH]c2ccc(Cl)cc12` [ABM300, 5-(5-chloro-3-ethyl-1H-indol-2-yl)-N-phenyl-1,3,4-oxadiazol-2-amine], the “binding to Dopamine D2” value (Dopamine D2) was “did not display any significant binding”, the “binding to CB2” value (CB2) was “did not display any significant binding” and the “time spent in the open arms (EPM)” value (C57Bl/6J mice) was “did not affect”. For the same compound, the IC50 (CB1R) was 379 nM and 355 nM and 380 nM, the “dysregulated hyperactivity (total distance traveled)” value (DATKO mice) was “normalized” and the stereotypic movements (DATKO mice) was “normalized”. For the same compound, the vertical exploration (DATKO mice) was “normalized”, the concentration at 30 min (in vivo; male, C57Bl/6, mouse, 10 mg/kg i.p., at 30 min, read-out: brain concentration) was 374 ± 39 ng/mL and the AUC(0-t) (in vivo; [1]) was 2050 ng·h/mL. The Cmax (in vivo; [1]) was 866 ng/mL and 412 ng/g, the Tmax (in vivo; male, C57Bl/6, mouse, ip, 10 mg/kg, Tmax) was 0.5 h and the AUClast (in vivo; mouse, ip, 10 mg/kg) was 1577.92 ng·h/g. For the same compound, the half-life (in vivo; mouse, ip, 10 mg/kg i.p., male C57Bl/6 mice) was about 2 h, the half-life at 3 µM (in vitro; microsomes, human liver microsomal preparations) was 1.82 h and the microsomal CLint at 3 µM (in vitro; human liver microsomes) was 12.7 ± 3.4 µL/min/mg.
